# Read-outs that look alike come from different tables or passages of the source.
# Key:
# Format in all cases: cell-based
# HSV-1 KOS = experiment: Plaque reduction assay, HSV-1 KOS
# Experimental: (§1) Antiviral activity of compounds against herpesviruses such as HSV-1, HSV-2, or HCMV can be measured using plaque reduction assays. 0.1 ml of media containing approximately 50 PFU of virus is added to each well of a 24-well cell culture dish containing a confluent monolayer of cells (Vero cells for HSV-1 and HSV-2, HFF cells for HCMV). Compounds are dissolved in 100% DMSO and diluted in 100% DMSO as 200× stocks of the desired final drug concentration. Typically 5-6 two-fold dilutions are prepared for each compound. Dilutions of compounds are then added to media containing 0.8% CMC resulting in a final 1× drug concentration. After the virus-infected cells have incubated for 1 h at 37° C., the virus innoculum is removed and 1 ml of media containing 0.8% CMC and the various concentrations of compound is added to each well of the dish. The dish is incubated at 37° C. for approximately 2-3 days (HSV-1 and HSV-2) or 6-9 days (HCMV) to allow sufficient growth of virus to form plaques in the cell monolayer. Plaques can be observed and counted microscopically or by staining the cells with 0.1% crystal violet in 20% ethanol. […] Antiviral activity of a compound is expressed as the concentration of compound predicted to reduce the number of plaques in a well by 50% (IC50). The IC50 values are calculated by plotting the per cent inhibition vs. concentration of compound using EXCEL software for linear regression.
# (§2) A panel of viruses consisting of four strains of HSV-1 (KOS, F, DJL, Patton) and three strains of HSV-2 (MS, 35D, 186) are tested in a plaque reduction assay against four different 4-oxo-DHQ compounds (#1, 2, 4, 5 as shown in FIG. 1), and one 4-oxo-DHTP compound (#3 as shown in FIG. 1) and against Acyclovir. The six drugs inhibited replication of the seven virus strains with IC50 values ranging from 2-10 μM (Table 1). In order to select for 4-oxo-DHQ resistant mutants, HSV-1 strains KOS, F, and DJL along with HSV-2 strains 186 and MS are serially passaged in the presence of 20 uM compound 1. Following the seventh passage, 4-oxo-DHQ resistant virus from each strain are plaque purified three times and high-titer stocks are made.
# HSV-1 F = experiment: Plaque reduction assay, HSV-1 F; conditions: Table 1, plaque reduction, Vero cells
# Experimental: as §1, §2
# HSV-1 DJL = experiment: Plaque reduction assay, HSV-1 DJL; conditions: Table 1, plaque reduction, Vero cells
# Experimental: as §1, §2
# HSV-1 Patton = experiment: Plaque reduction assay, HSV-1 Patton; conditions: Table 1, plaque reduction, Vero cells
# Experimental: as §1, §2
# HSV-2 MS = experiment: Plaque reduction assay, HSV-2 MS
# Experimental: as §1, §2
# HSV-2 35D = experiment: Plaque reduction assay, HSV-2 35D; conditions: Table 1, plaque reduction, Vero cells
# Experimental: as §1, §2
# HSV-2 186 = experiment: Plaque reduction assay, HSV-2 186; conditions: Table 1, plaque reduction, Vero cells
# Experimental: as §1, §2
# HSV-1 KOS-M1 (V823A) = experiment: Plaque reduction assay, 4-oxo-DHQ resistant HSV-1 KOS-M1; conditions: Table 5, mutant selected for 4-oxo-DHQ resistance; read-out: Plaque Reduction Assay - IC50 (μM) HSV-1 KOS-M1
# Experimental: as §1
# (§3) Vero cells are plated out at a density of 3.5×10^5 cells per well in a six well tissue culture plate. Cells are infected with HSV-1 KOS at a multiplicity of infection (moi) of 0.1 pfu/cell and 1 h post infection the cells are overlayed with 3 ml media containing 20 uM of a 4-oxo-DHQ. Cultures are incubated for 20 h at 37° C., freeze/thawed to release cell-associated virus, and 0.1 ml of culture is used to infect a new monolayer of Vero cells (one passage). Serial passage is repeated seven times in the presence of 20 uM drug. Virus isolates are then plaque purified three times prior to preparation of stocks. 4-oxo-DHQ resistant HSV-1 and HSV-2 may also be selected by the marker transfer method described below using wild-type HSV DNA and the corresponding mutant HSV polymerase gene.
# as §2
# HSV-2 MS-M1 (V826A) = experiment: Plaque reduction assay, 4-oxo-DHQ resistant HSV-2 MS-M1; conditions: Table 5, mutant selected for 4-oxo-DHQ resistance; read-out: Plaque Reduction Assay - IC50 (μM) HSV-2 MS-M1
# Experimental: as §1, §3, §2
# HCMV AD169 = experiment: Plaque reduction assay, HCMV AD169; conditions: Table 5, wild type strain; read-out: Plaque Reduction Assay - IC50 (μM) HCMV AD169
# Experimental: as §1
# [1] = system: HCMV AD169-M1 (V823A, V824L); experiment: Plaque reduction assay, 4-oxo-DHQ resistant HCMV AD169-M1; conditions: Table 5, mutant selected for 4-oxo-DHQ resistance; read-out: Plaque Reduction Assay - IC50 (μM) HCMV AD169-M1
# Experimental: as §1
# A plasmid containing the wild-type HCMV polymerase gene is modified to contain the V823A or V823A and V824L mutations using a site-directed mutagenesis Kit (Stratagene Corp.) and following the manufactures's protocol. HFF cells are plated into T25 tissue culture flasks to achieve 80% confluency at the time of the transfection. Wild type HCMV AD 169 DNA and plasmid DNA containing the mutant HCMV polymerase gene are mixed at a ratio of 1:2 (2 ug of viral DNA to 4 ug of plasmid DNA). DNA's are transfected using superfect transfection reagent according to methods recommended by the manufacturer (Quiagen Inc.). Cells are harvested five days posttransfection, freeze-thawed to release virus and half of the sample is used to infect HFF cell monolayers. Cells are overlayed with media containing 20 uM 4-oxo-DHQ compound 2 (see FIG. 1). Serial passage is repeated seven times in the presence of 20 uM compound 2 and virus isolates are then plaque purified three times prior to preparation of viral stock.
# In order to isolate an HCMV resistant mutant marker rescue experiments are done. Plasmids containing the mutant polymerase genes are transfected into HFF cells along with wild type HCMV AD169 DNA. The resulting virus is then serially passaged in the presence of 20 uM compound 1 (see FIG. 1). A 4-oxo-DHQ resistant virus is isolated from marker rescue studies done with the HCMV polymerase gene containing mutations that result in the V823A, V824L amino acid changes, but not with the gene containing V823A change alone.
smiles,measurement,setting,value
Cn1cc(C(=O)NCc2ccc(Cl)cc2)c(=O)c2cc(CN3CCOCC3)sc21 [Compound 3],IC50,"HSV-1 KOS; Table 1, plaque reduction, Vero cells, read-out: IC50 (uM), HSV-1 KOS",3.2 µM
same,IC50,"HSV-1 KOS; Table 5, wild type strain, read-out: Plaque Reduction Assay - IC50 (μM) HSV-1 KOS",4 µM
same,IC50,HSV-1 F,2.2 µM
same,IC50,HSV-1 DJL,1.8 µM
same,IC50,HSV-1 Patton,7.7 µM
same,IC50,"HSV-2 MS; Table 1, plaque reduction, Vero cells, read-out: IC50 (uM), HSV-2 MS",2.8 µM
same,IC50,"HSV-2 MS; Table 5, wild type strain, read-out: Plaque Reduction Assay - IC50 (μM) HSV-2 MS",0.8 µM
same,IC50,HSV-2 35D,5 µM
same,IC50,HSV-2 186,3.2 µM
same,IC50,HSV-1 KOS-M1 (V823A),> 50 µM
same,IC50,HSV-2 MS-M1 (V826A),> 50 µM
same,IC50,HCMV AD169,1.5 µM
same,IC50,[1],6.2 µM
